Experimental data: US10780090B2, “Heteroaryl compounds useful as inhibitors of SUMO activating enzyme” (Millennium Pharmaceuticals, Inc., priority 2014, dated 2020)

Molecular target: recombinant human SAE enzyme (Homo sapiens (Human), UniProt Q9UBT2)
Test: SAE HTRF enzyme assay
Assay type: biochemical
Details: for Percent Inhibition: Concentration 0.111 μM; for IC50: class symbols A/B/C
Summary of the method: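 HTRF read-out using Eu-cryptate anti-Flag and allophycocyanin anti-GST antibodies, added with EDTA stop buffer and read after 2 h at 24 °C. The preceding reaction ran 105 min at 24 °C: 0.11 nM recombinant SAE, 0.5 μM ATP, Sumo-Flag, Ubc9-GST, pH 7.5. Values given as single-concentration inhibition or IC50.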

recombinant human SAE enzyme, sequence (Q9UBT2 whole entry): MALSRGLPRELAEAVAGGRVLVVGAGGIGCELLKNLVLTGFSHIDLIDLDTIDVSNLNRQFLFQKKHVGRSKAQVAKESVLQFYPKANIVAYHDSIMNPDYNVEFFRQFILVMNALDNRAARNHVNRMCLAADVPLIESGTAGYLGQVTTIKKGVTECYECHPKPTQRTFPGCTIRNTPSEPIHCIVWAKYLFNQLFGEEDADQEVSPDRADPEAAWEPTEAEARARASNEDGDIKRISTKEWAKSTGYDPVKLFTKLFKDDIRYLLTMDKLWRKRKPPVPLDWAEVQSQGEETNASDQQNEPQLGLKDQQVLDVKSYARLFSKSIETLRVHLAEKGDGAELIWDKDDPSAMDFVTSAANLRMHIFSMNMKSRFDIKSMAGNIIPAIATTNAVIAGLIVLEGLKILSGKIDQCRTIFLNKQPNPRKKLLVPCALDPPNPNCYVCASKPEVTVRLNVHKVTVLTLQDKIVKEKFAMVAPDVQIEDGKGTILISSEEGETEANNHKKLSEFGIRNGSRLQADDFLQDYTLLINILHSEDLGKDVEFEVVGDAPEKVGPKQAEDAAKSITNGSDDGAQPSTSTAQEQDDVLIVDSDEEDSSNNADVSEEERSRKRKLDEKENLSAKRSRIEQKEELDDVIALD
recombinant human SAE enzyme, sequence (Q9UBE0 whole entry partner): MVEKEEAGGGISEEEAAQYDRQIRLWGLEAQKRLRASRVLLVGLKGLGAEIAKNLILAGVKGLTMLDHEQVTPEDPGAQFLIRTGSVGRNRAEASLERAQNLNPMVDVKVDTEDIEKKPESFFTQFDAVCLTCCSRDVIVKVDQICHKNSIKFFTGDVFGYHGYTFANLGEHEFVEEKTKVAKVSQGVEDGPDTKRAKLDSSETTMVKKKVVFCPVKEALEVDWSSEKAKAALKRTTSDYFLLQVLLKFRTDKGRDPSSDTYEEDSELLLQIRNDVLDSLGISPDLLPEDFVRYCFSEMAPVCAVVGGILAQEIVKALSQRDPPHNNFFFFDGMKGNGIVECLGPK

SMILES | Percent Inhibition | IC50 [nM]
CN1Cc2ccc(Cl)cc2[C@@H]1c1csc(C(=O)c2cncnc2N[C@@H]2C[C@H](COS(N)(=O)=O)[C@@H](O)C2)c1 (single isomer, unassigned) [I-265b, [(1R,2S,4R)-4-{[5-({4-[(1R)-6-chloro-2-methyl-2,3-dihydro-1H-isoindol-1-yl]-2-thienyl}carbonyl)pyrimidin-4-yl]amino}-2-hydroxycyclopentyl]methyl sulfamate or [(1R,2S,4R)-4-{[5-({4-[(1S)-6-chloro-2-methyl-2,3-dihydro-1H-isoindol-1-yl]-2-thienyl}carbonyl)pyrimidin-4-yl]amino}-2-hydroxycyclopentyl]methyl sulfamate] | 72 | 10 to 100
NS(=O)(=O)OC[C@H]1C[C@@H](Nc2ncncc2C(=O)c2cc([C@@H]3OCCc4cccnc43)c(Cl)s2)C[C@@H]1O (single isomer, unassigned) [I-266a, [(1R,2S,4R)-4-{[5-({5-chloro-4-[(8S)-5,8-dihydro-6H-pyrano[3,4-b]pyridin-8-yl]-2-thienyl}carbonyl)pyrimidin-4-yl]amino}-2-hydroxycyclopentyl]methyl sulfamate or [(1R,2S,4R)-4-{[5-({5-chloro-4-[(8R)-5,8-dihydro-6H-pyrano[3,4-b]pyridin-8-yl]-2-thienyl}carbonyl)pyrimidin-4-yl]amino}-2-hydroxycyclopentyl]methyl sulfamate] | 41 | 100 to 1000
NS(=O)(=O)OC[C@H]1C[C@@H](Nc2ncncc2C(=O)c2cc([C@@H]3OCCc4cccnc43)c(Cl)s2)C[C@@H]1O (single isomer, unassigned) [I-266b, [(1R,2S,4R)-4-{[5-({5-chloro-4-[(8S)-5,8-dihydro-6H-pyrano[3,4-b]pyridin-8-yl]-2-thienyl}carbonyl)pyrimidin-4-yl]amino}-2-hydroxycyclopentyl]methyl sulfamate or [(1R,2S,4R)-4-{[5-({5-chloro-4-[(8R)-5,8-dihydro-6H-pyrano[3,4-b]pyridin-8-yl]-2-thienyl}carbonyl)pyrimidin-4-yl]amino}-2-hydroxycyclopentyl]methyl sulfamate] | 100 | < 10
NS(=O)(=O)OC[C@H]1C[C@@H](Nc2ncncc2C(=O)c2cc([C@@H]3OCCc4ccc(F)cc43)cs2)C[C@@H]1O (single isomer, unassigned) [I-267, [(1R,2S,4R)-4-{[5-({4-[(1R)-7-Fluoro-3,4-dihydro-1H-isochromen-1-yl]-2-thienyl}carbonyl)pyrimidin-4-yl]amino}-2-hydroxycyclopentyl]methyl sulfamate or [(1R,2S,4R)-4-{[5-({4-[(1S)-7-Fluoro-3,4-dihydro-1H-isochromen-1-yl]-2-thienyl}carbonyl)pyrimidin-4-yl]amino}-2-hydroxycyclopentyl]methyl sulfamate] | 97 | < 10
NS(=O)(=O)OC[C@H]1C[C@@H](Nc2ncncc2C(=O)c2cc([C@@H]3OCCc4ccc(F)cc43)cs2)C[C@@H]1O (single isomer, unassigned) [I-267a, [(1R,2S,4R)-4-{[5-({4-[(1R)-7-fluoro-3,4-dihydro-1H-isochromen-1-yl]-2-thienyl}carbonyl)pyrimidin-4-yl]amino}-2-hydroxycyclopentyl]methyl sulfamate or [(1R,2S,4R)-4-{[5-({4-[(1S)-7-fluoro-3,4-dihydro-1H-isochromen-1-yl]-2-thienyl}carbonyl)pyrimidin-4-yl]amino}-2-hydroxycyclopentyl]methyl sulfamate] | 65 | 10 to 100
NS(=O)(=O)OC[C@H]1C[C@@H](Nc2ncncc2C(=O)c2cc([C@@H]3OCCc4ccc(F)cc43)cs2)C[C@@H]1O (single isomer, unassigned) [I-267b, [(1R,2S,4R)-4-{[5-({4-[(1R)-7-fluoro-3,4-dihydro-1H-isochromen-1-yl]-2-thienyl}carbonyl)pyrimidin-4-yl]amino}-2-hydroxycyclopentyl]methyl sulfamate or [(1R,2S,4R)-4-{[5-({4-[(1S)-7-fluoro-3,4-dihydro-1H-isochromen-1-yl]-2-thienyl}carbonyl)pyrimidin-4-yl]amino}-2-hydroxycyclopentyl]methyl sulfamate] | 100 | < 10
NS(=O)(=O)OC[C@H]1C[C@@H](Nc2ncncc2C(=O)c2cc([C@@H]3OCCc4ccc(Br)cc43)cs2)C[C@@H]1O (single isomer, unassigned) [I-268a, [(1R,2S,4R)-4-{[5-({4-[(1R)-7-bromo-3,4-dihydro-1H-isochromen-1-yl]-2-thienyl}carbonyl)pyrimidin-4-yl]amino}-2-hydroxycyclopentyl]methyl sulfamate or [(1R,2S,4R)-4-{[5-({4-[(1S)-7-bromo-3,4-dihydro-1H-isochromen-1-yl]-2-thienyl}carbonyl)pyrimidin-4-yl]amino}-2-hydroxycyclopentyl]methyl sulfamate] | 50 | 100 to 1000
NS(=O)(=O)OC[C@H]1C[C@@H](Nc2ncncc2C(=O)c2cc([C@@H]3OCCc4ccc(Br)cc43)cs2)C[C@@H]1O (single isomer, unassigned) [I-268b, [(1R,2S,4R)-4-{[5-({4-[(1R)-7-bromo-3,4-dihydro-1H-isochromen-l-yl]-2-thienyl}carbonyl)pyrimidin-4-yl]amino}-2-hydroxycyclopentyl]methyl sulfamate or [(1R,2S,4R)-4-{([5-({4-[(1S)-7-bromo-3,4-dihydro-1H-isochromen-1-yl]-2-thienyl}carbonyl)pyrimidin-4-yl]amino}-2-hydroxycyclopentyl]methyl sulfamate] | 102 | < 10
Cc1sc(C(=O)c2cncnc2N[C@@H]2C[C@H](COS(N)(=O)=O)[C@@H](O)C2)cc1[C@@H]1OCCc2ccsc21 (single isomer, unassigned) [I-269a, [(1R,2S,4R)-4-{[5-({4-[(7S)-4,7-dihydro-5H-thieno[2,3-c]pyran-7-yl]-5-methyl-2-thienyl}carbonyl)pyrimidin-4-yl]amino}-2-hydroxycyclopentyl]methyl sulfamate or [(1R,2S,4R)-4-{[5-({4-[(7R)-4,7-dihydro-5H-thieno[2,3-c]pyran-7-yl]-5-methyl-2-thienyl}carbonyl)pyrimidin-4-yl]amino}-2-hydroxycyclopentyl]methyl sulfamate] | 101 | < 10
Cc1sc(C(=O)c2cncnc2N[C@@H]2C[C@H](COS(N)(=O)=O)[C@@H](O)C2)cc1[C@@H]1OCCc2ccsc21 (single isomer, unassigned) [I-269b, [(1R,2S,4R)-4-{[5-({4-[(7S)-4,7-dihydro-5H-thieno[2,3-c]pyran-7-yl]-5-methyl-2-thienyl}carbonyl)pyrimidin-4-yl]amino}-2-hydroxycyclopentyl]methyl sulfamate or [(1R,2S,4R)-4-{[5-({4-[(7R)-4,7-dihydro-5H-thieno[2,3-c]pyran-7-yl]-5-methyl-2-thienyl}carbonyl)pyrimidin-4-yl]amino}-2-hydroxycyclopentyl]methyl sulfamate] | 95 | 10 to 100
Cc1oc(C(=O)c2cncnc2N[C@@H]2C[C@H](COS(N)(=O)=O)[C@@H](O)C2)cc1[C@@H]1OCCc2ccc(Cl)cc21 (single isomer, unassigned) [I-270a, {(1R,2S,4R)-4-[(5-{4-[(1R)-7-chloro-3,4-dihydro-1H-isochromen-1-yl]-5-methyl-2-furoyl}pyrimidin-4-yl)amino]-2-hydroxycyclopentyl}methyl sulfamate or {(1R,2S,4R)-4-[(5-{4-[(1S)-7-chloro-3,4-dihydro-1H-isochromen-1-yl]-5-methyl-2-furoyl}pyrimidin-4-yl)amino]-2-hydroxycyclopentyl}methyl sulfamate] | 79 | 10 to 100
Cc1oc(C(=O)c2cncnc2N[C@@H]2C[C@H](COS(N)(=O)=O)[C@@H](O)C2)cc1[C@@H]1OCCc2ccc(Cl)cc21 (single isomer, unassigned) [I-270b, {(1R,2S,4R)-4-[(5-{4-[(1R)-7-chloro-3,4-dihydro-1H-isochromen-1-yl]-5-methyl-2-furoyl}pyrimidin-4-yl)amino]-2-hydroxycyclopentyl}methyl sulfamate or {(1R,2S,4R)-4-[(5-{4-[(1S)-7-chloro-3,4-dihydro-1H-isochromen-1-yl]-5-methyl-2-furoyl}pyrimidin-4-yl)amino]-2-hydroxycyclopentyl}methyl sulfamate] | 99 | < 10
Cc1sc(C(=O)c2cncnc2N[C@@H]2C[C@H](COS(N)(=O)=O)[C@@H](O)[C@@H]2F)cc1[C@@H]1OCCc2ccccc21 (single isomer, unassigned) [I-271a, [(1R,2R,3R,4R)-4-{([5-({4-[(1R)-3,4-dihydro-1H-isochromen-1-yl]-5-methyl-2-thienyl)carbonyl)pyrimidin-4-yl]amino}-3-fluoro-2-hydroxycyclopentyl]methyl sulfamate or [(1R,2R,3R,4R)-4-{([5-({4-[(1S)-3,4-dihydro-1H-isochromen-l-yl]-5-methyl-2-thienyl}carbonyl)pyrimidin-4-yl]amino}-3-fluoro-2-hydroxycyclopentyl]methyl sulfamate] | 99 | < 10
Cc1oc(C(=O)c2cncnc2N[C@@H]2C[C@H](COS(N)(=O)=O)[C@@H](O)C2)cc1C1OCCc2ccccc21 (single isomer, unassigned) [I-272a, {(1R,2S,4R)-4-[(5-{4-[(1R)-3,4-dihydro-1H-isochromen-1-yl]-5-methyl-2-furoyl}pyrimidin-4-yl)amino]-2-hydroxycyclopentyl}methyl sulfamate or {(1R,2S,4R)-4-[(5-{4-[(1S)-3,4-dihydro-1H-isochromen-1-yl]-5-methyl-2-furoyl}pyrimidin-4-yl)amino]-2-hydroxycyclopentyl}methyl sulfamate] | 96 | < 10
